Measurements published in patent US20100129428A1, “SUPRA MOLECULAR CONSTRUCT FOR DELIVERY OF INTERFERON TO A MAMMAL” (SDG, Inc., priority 2005, published 2010).

How the values were obtained:
[1] = system: double stranded RNA dependent protein kinase (PKR) gene; experiment: Induction of PKR mRNA in liver and spleen of mice, real time quantitative PCR; assay type: in vivo, mouse
Protocol: The efficacy of HDV-interferon alpha was evaluated in a mouse model having a genetic marker response to the hepatic effect of interferon. C57B16 mice were obtained from Jackson Laboratory and a breeding colony was established at Cleveland MetroHealth Center, Cleveland, Ohio. Mice were obtained from the breeding colony. Two groups of mice, a test group and a control group, were treated. The test group received Interferon+HDV, while the control group received Interferon alone. HDV-Interferon comprised 100 mcg HDV to 10 mcg Interferon alpha. HDV was supplied by Hepasome Pharmaceuticals and Roeferon was the source of the interferon alpha. The HDV and interferon alpha were allowed to equilibrate for 12 hours prior to injection into the mice. Mice from both groups were dosed with 100,000 U/kg body wt. To test the timing of response to IFN, Roferon was subcutaneously injected into the mice. The mice were sacrificed at 6 hours after dosing. The spleen and liver of the sacrificed […] were obtained for analysis. […] The assay used real time quantitative PCR (polymerase chain reaction) to assay the level of PKR messenger ribonucleic acid (mRNA). […] The produced cDNAs were subjected to semi-quantitative PCR, the 6 hour time point was selected for the HDV experiments. […] Real time quantitative PCR was performed on the produced cDNAs using cybr green technology. […]

[2] = system: hepatitis C virus; conditions: chronic hepatitis C; treatment with interferon alone; cited from earlier work

interferon alpha
relative expression level in the spleen compared to the relative expression level in the liver ([1]; PKR mRNA, C57B16 mice, 100,000 U/kg body wt, subcutaneous, 6 hours after dosing, FIG. 12a): approximately twice | increase in PKR activation relative to a baseline ([1]; hepatic PKR activation, mouse model, FIG. 13): ~5 fold | sustained response [2]: less than 15 % of subjects
